Reference: patent US7101681B1, “Nuclear hormone receptor drug screens” (Amgen, Inc., priority 1997, dated 2006)

Columns and labels:
RXR = experiment: Fluorescent polarization assay, labeled peptide sensor binding to RXR; conditions: for Sensors Activity: Fluorescent Polarization Assay RXR: graded symbols O, I to IV, key not given
Description: (§1) I. High-Throughput In Vitro Fluorescence Polarization Assay
(§2) • Sensor: Rhodamine-labeled L1X1X2L2L3 peptide (final conc.=1–5 nM) • Receptor: Glutathione-S-transferase/nuclear hormone receptor ligand binding domain fusion protein (final conc.=100–200 nM) • Buffer: 10 mM HEPES, 10 mM NaCl, 6 mM magnesium chloride, pH 7.6 Protocol: • 1. Add 90 microliters of peptide/NHR mixture to each well of a 96-well microtiter plate. • 2. Add 10 microliters of test compound per well. • 3. Shake 5 min and within 5 minutes determine amount of fluorescence polarization by using a Fluorolite FPM-2 Fluorescence Polarization Microtiter System (Dynatech Laboratories, Inc). II. Conformational Sensor—ELISA Format Assay Buffer and Solution Preparation: […]

LXR = experiment: Fluorescent polarization assay, labeled peptide sensor binding to LXR; conditions: for Sensors Activity: Fluorescent Polarization Assay LXR: graded symbols O, I to IV, key not given
Description: as §1, §2

PPARγ = molecular target: T1, PPARγ (Homo sapiens, UniProt P37231); experiment: Fluorescent polarization assay, labeled peptide sensor binding to PPARγ; conditions: graded symbols O, I to IV, key not given
T1 sequence (P37231 238-503 limits assumed): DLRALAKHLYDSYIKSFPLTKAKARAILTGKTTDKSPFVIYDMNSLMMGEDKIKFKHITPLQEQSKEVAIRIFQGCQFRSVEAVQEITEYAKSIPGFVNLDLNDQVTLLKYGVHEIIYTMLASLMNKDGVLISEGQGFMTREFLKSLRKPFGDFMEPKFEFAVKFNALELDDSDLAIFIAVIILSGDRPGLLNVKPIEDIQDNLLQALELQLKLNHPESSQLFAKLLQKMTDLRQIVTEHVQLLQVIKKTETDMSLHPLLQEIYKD
Description: as §1, §2

Molecule	Sensors Activity: Fluorescent Polarization Assay RXR (RXR)	Sensors Activity: Fluorescent Polarization Assay LXR (LXR)	further results
9-cis-retinoic acid [reference compound]	–	–	RXR receptor affinity for labeled peptide sensor (RXR; ligand at 1 μM, dose response, FIG. 3): increases
CC(C)C(=O)CC[C@@H](C)[C@H]1CC[C@H]2[C@@H]3CC=C4C[C@@H](O)CC[C@]4(C)[C@H]3CC[C@]12C [24-ketocholesterol, reference compound]	–	–	LXR receptor affinity for labeled peptide sensor (LXR; ligand at 2 μM, dose response, FIG. 2): increases
TUK-1371: labeled peptide sensor R-ILHRLLQE, SRC-1 689–696	–	–	Sensors Activity: Fluorescent Polarization Assay PPARγ (PPARγ): I+
TUK-1373: labeled peptide sensor R-G-ILHRLLQE, SRC-1 689–696	II+	–	–
TUK-1376: labeled peptide sensor F-G-VTLLQLLLG, RIP-140 496–506	–	II+	–
TUK-1380: labeled peptide sensor F-LLQQLLTE (SEQ ID NO:12), SRC-1 1434–1441 (fluorescent label)	–	II+	–
TUK-1381: labeled peptide sensor R-LLQQLLTE, SRC-1 1434–1441	I+	–	Sensors Activity: Fluorescent Polarization Assay PPARγ (PPARγ): I+
TUK-1382: labeled peptide sensor F-G-LLQQLLTE, SRC-1 1434–1441	–	II+	–
TUK-1385: labeled peptide sensor R-KLVQLLTTT, SRC-1 632–640	II+	II+	–
TUK-1390: labeled peptide sensor F-LLRYLLDK (SEQ ID NO:3), SRC-1 748–755 (fluorescent label)	II+	–	–
TUK-1391: labeled peptide sensor R-LLRYLLDK, SRC-1 748–755	–	–	Sensors Activity: Fluorescent Polarization Assay PPARγ (PPARγ): II+
TUK-1392: labeled peptide sensor F-G-LLRYLLDK, SRC-1 748–755	–	II+	–
TUK-1393: labeled peptide sensor R-G-LLRYLLDK, SRC-1 748–755	II+	III+	–
TUK-1453: labeled peptide sensor R-LLRYLLD (SEQ ID NO:4), SRC-1 748–754 (R label)	I+	–	–
TUK-1455: labeled peptide sensor R-LRYLLD (SEQ ID NO:5), SRC-1 749–754 (R label)	–	–	Sensors Activity: Fluorescent Polarization Assay PPARγ (PPARγ): I+
TUK-1473: labeled peptide sensor R-QLLRYLLDKD (SEQ ID NO:9), SRC-1 747–756 (label R)	I+	–	Sensors Activity: Fluorescent Polarization Assay PPARγ (PPARγ): I+
TUK-1557: labeled peptide sensor R-ILKKLLQE (SEQ ID NO:17), synthetic sequence peptide (label R)	–	III+	–
